Values quoted from earlier work, collected in patent US11759447B1, “Compound and method for treating diseases and disorders” (RCR BIOPHARMA, priority 2019, dated 2023).

Experiments:
dogs [1] = conditions: IV
[2] = oral forms such as CBD treats
dogs [3] = conditions: high levels of hemp-derived CBD (<0.3% THC)
dogs [4] = tested on: dogs

In the case of `CCCCCc1cc(O)c2c(c1)OC(C)(C)[C@@H]1CCC(C)=C[C@@H]21` [THC, Δ-9-tetrahydrocannabinol], the “dose causing Static Ataxia” value (dogs [1]) is listed as > 0.5 mg/kg.
For `C=C(C)[C@@H]1CCC(C)=C[C@H]1c1c(O)cc(CCCCC)cc1O` [CBD, Cannabidiol], the “fraction of orally administered CBD ultimately absorbed, on average” value [2] is given as 5-10% and the dogs with ataxia (dogs [3]) is given as 2 of the 10.
For `COc1cccc(C2(O)CCCCC2CN(C)C)c1` (stereo not shown) [tramadol, Tramadol], the “peak vertical force or vertical impulse versus placebo” value (dogs [4]) is listed as “no improvement”.
